The record followed here is patent publication US11572402B2, “Method for promoting diversification of antibody variable region” (Chiome Bioscience Inc., priority 2017, dated 2023).

Assay [1] deals with BMAA4-2 cell line. Kind of assay: Sequence change analysis using BMAA4-2 cell line according to flow cytometry (cIgM+_Sema3A− population). It counts as cell-based, chicken. To be noted: BMAA4-2 cells, FCM at 1 week of culture, versus negative control CS(−). As to the method:
A frozen stock of the BMAA4-2 cell line (3.0×10^6 cells) was awaken with 10 mL of CS(−) medium, using a 25 cm^2 Flask (Corning, 430639), and the cells were then cultured in a CO2 incubator (SANYO CO2 Incubator MCO-20AIC, 39.5° C., 5% CO2). On the following day, 500 μL each of a CS(−) medium, to which each drug had been added, was added into each well of a 48-well dish (Nunc, 150687), and the cells were then seeded thereon to a cell density of 6.0×10^4 cells/mL (wherein the cell concentration and the survival rate were measured using CASY cell counter (Nepa Gene)). After individual samples had been cultured for 2 days, the samples were subcultured under the same conditions to result in a cell density of 1.0×10^4 cells/mL. […] Thereafter, a plot, in which the vertical axis indicated APC (AF647-labeled Sema3A) and the longitudinal axis indicated PE (Mouse Anti-Chicken IgM-PE), was developed, and the percentage of PE+ (cIgM+)_APC− (Sema3A−) cells was then calculated.
Using the BMAA4-2 cell line, a system for screening for a diversification-promoting compound was constructed (FIG. 1). […] Thus, the percentage of cIgM+_Sema3A− populations under individual culture conditions is measured and compared according to FCM, so that the effect of promoting changes in the amino acid sequences (i.e., the effect of promoting the diversification of the amino acid sequences) can be evaluated.
(In general: A flow cytometer gives signals particle by particle.)

Assay [2] relates to CL18_M− cell line. Kind of assay: Light chain gene conversion (GC) analysis according to Reversion assay. To be noted: one and two weeks of culture, PI3Kα Inhibitor 2 at 200 nM, versus CAL-101, CZC 24832, AS 604850 and CS(−). The format is cell-based, chicken. The protocol: A frozen stock of the CL18_M− cell line (3.0×10^6 cells) was awaken with 10 mL of CS(−) medium, using a 25 cm^2 Flask, and the cells were then cultured in a CO2 incubator (39.5° C., 5% CO2). On the following day, 2 mL each of a CS(−) medium, to which each drug had been added, was added into each well of a 24 deep well plate (ThermoFisher Scientific, 95040480), and the cells were then seeded thereon to a cell density of 6.0×10^4 cells/mL (wherein the cell concentration and the survival rate were measured using CASY cell counter). After individual samples had been cultured for 2 days, the samples were subcultured under the same conditions to result in a cell density of 1.0×10^4 cells/mL. […] Thereafter, a plot, in which the vertical axis indicated FITC (Goat anti-Chicken IgM Antibody FITC Conjugated) and the longitudinal axis indicated PE (none), was developed, and the percentage of PE-_FITC+(cIgM+) cells was then calculated.
Meanwhile, after completion of the culture for 7 days, individual samples were subcultured under the same conditions to result in a cell density of 6.0×10^4 cells/mL. […] At the time point of Day 14 of the culture, individual samples were measured using FACS Canto II Flow Cytometer, as with the measurement on Day 7. […]

With `Cc1nc(NC(=O)N2CCC[C@H]2C(N)=O)sc1-c1csc(C(C)(C)C)n1` [A66], the “percentage of cIgM+_Sema3A− populations (sequence change-promoting action)” value in assay [1] was “highest sequence change-promoting action”. Further, in assay [2], the “Reversion activity (percentage of IgM expression-positive cells)” value is “higher Reversion activity”.
